Assay results: US20240158446A1, “CYCLIC COMPOUND HAVING SELECTIVE INHIBITORY ACTION ON KRAS OVER HRAS AND NRAS” (CHUGAI SEIYAKU KABUSHIKI KAISHA, priority 2021, published 2024)
Like-named read-outs stand apart in the source and are kept apart here. *1 amine or outer side, *2 acyl side, *3 side chain or, on linkers, in order; H or OH if unused. Where a SMILES comes first, the peptide text is derived from it. Bridges are numbered along the chain shown (N, C = ends). [ ]: non-standard residue; d: D form. The star is where a group is joined. hPhe(3-Cl-4-CF3) = N[C@@H](CCc1ccc(C(F)(F)F)c(Cl)c1)C(=O)O; NPrPhe(4-CF3) = CCCN[C@@H](Cc1ccc(C(F)(F)F)cc1)C(=O)O; X18 = Cc1ccc(C[C@@H](C(=O)[*:2])N(CC(C)C)[*:1])cc1; NMeGly(cPent) = CN[C@H](C(=O)O)C1CCCC1; Pro(4,4-F2) = O=C(O)[C@@H]1CC(F)(F)CN1; Hyp = O=C(O)[C@@H]1C[C@@H](O)CN1; NMeD = CN[C@@H](CC(=O)O)C(=O)O; NMeL = CN[C@@H](CC(C)C)C(=O)O; Morpholide = C1CN(*)CCO1; NMeA = CN[C@@H](C)C(=O)O; Ac5c = NC1(C(=O)O)CCCC1; Aze = O=C(O)[C@@H]1CCN1; Ac4c = NC1(C(=O)O)CCC1; Sar = CNCC(=O)O

Assays:
[1] = molecular target: GDP-bound KRAS wild-type protein (Homo sapiens, UniProt P01116); assay: Binding to KRAS by surface plasmon resonance (SPR), Single Cycle Kinetics; conditions: GDP-bound KRAS wild-type protein, read-out: KRAS KD
Chain of GDP-bound KRAS wild-type protein (P01116 whole entry): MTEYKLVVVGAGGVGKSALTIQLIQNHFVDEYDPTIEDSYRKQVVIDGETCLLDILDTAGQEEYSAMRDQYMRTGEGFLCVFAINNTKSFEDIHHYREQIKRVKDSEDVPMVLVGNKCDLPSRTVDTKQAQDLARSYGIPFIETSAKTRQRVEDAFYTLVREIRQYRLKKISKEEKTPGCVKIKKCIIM

[2] = molecular target: GDP-bound NRAS wild-type protein (Homo sapiens, UniProt P01111); assay: Binding to NRAS by surface plasmon resonance (SPR), Single Cycle Kinetics; conditions: for NRAS/KRAS (ratio of KD value with respect to NRAS to KD value with respect to KRAS) / NRAS/KRAS (ratio of KD value for NRAS to KD value for KRAS): SPR, GDP-bound NRAS wild-type protein vs GDP-bound KRAS wild-type protein; for NRAS/KRAS (ratio of KD value with respect to GDP-bound NRAS wild-type protein to KD value with respect to KRAS): SPR KD ratio NRAS/KRAS, class symbols
Chain of GDP-bound NRAS wild-type protein (P01111 whole entry): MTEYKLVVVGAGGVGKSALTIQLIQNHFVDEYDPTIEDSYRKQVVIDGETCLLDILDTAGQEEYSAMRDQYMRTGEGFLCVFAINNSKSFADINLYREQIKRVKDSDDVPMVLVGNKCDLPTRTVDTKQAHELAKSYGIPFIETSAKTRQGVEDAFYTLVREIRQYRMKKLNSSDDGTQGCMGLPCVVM

[3] = molecular target: GDP-bound HRAS wild-type protein (Homo sapiens, UniProt P01112); assay: Binding to HRAS by surface plasmon resonance (SPR), Single Cycle Kinetics; conditions: for HRAS/KRAS (ratio of KD value with respect to HRAS to KD value with respect to KRAS) / HRAS/KRAS (ratio of KD value for HRAS to KD value for KRAS): SPR, GDP-bound HRAS wild-type protein vs GDP-bound KRAS wild-type protein; for HRAS/KRAS (ratio of KD value with respect to GDP-bound HRAS wild-type protein to KD value with respect to KRAS): SPR KD ratio HRAS/KRAS, class symbols
Chain of GDP-bound HRAS wild-type protein (P01112 whole entry): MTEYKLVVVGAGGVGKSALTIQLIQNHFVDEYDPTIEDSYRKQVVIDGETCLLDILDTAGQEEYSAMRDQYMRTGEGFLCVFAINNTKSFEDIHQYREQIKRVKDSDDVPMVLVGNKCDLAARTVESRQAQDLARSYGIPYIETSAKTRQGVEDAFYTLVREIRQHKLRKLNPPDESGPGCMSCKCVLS

[4] = SPR Single Cycle Kinetics, 1:1 binding model

Row | Structure (SMILES) | Kd [1, 4] [nM] | NRAS/KRAS (ratio of KD value with respect to NRAS to KD value with respect to KRAS) [2] | HRAS/KRAS (ratio of KD value with respect to HRAS to KD value with respect to KRAS) [3] | Kd ([1]; SPR, Single Cycle Kinetics) [nM] | NRAS/KRAS (ratio of KD value for NRAS to KD value for KRAS) [2] | HRAS/KRAS (ratio of KD value for HRAS to KD value for KRAS) [3] | NRAS/KRAS (ratio of KD value with respect to GDP-bound NRAS wild-type protein to KD value with respect to KRAS) [2] | HRAS/KRAS (ratio of KD value with respect to GDP-bound HRAS wild-type protein to KD value with respect to KRAS) [3]
1 | CC[C@H](C)[C@@H]1NC(=O)[C@H](CC(C)C)N(C)C(=O)C[C@@H](C(=O)N2CCOCC2)NC(=O)[C@H](C2CCCC2)N(C)C(=O)C2(CCCC2)NC(=O)[C@@H]2CCCN2C(=O)[C@H](CCc2cc(F)c(C(F)(F)F)c(F)c2)NC(=O)CN(C)C(=O)[C@H](Cc2ccc(C(F)(F)F)cc2)N2CCCCC[C@@H](C2=O)N(C)C(=O)CN(C)C1=O [PP0479] | 29 | B (a compound having 3 or more and less than 10 is denoted as B) | B (a compound having 3 or more and less than 10 is denoted as B) |  |  |  |  | 
2 | CC[C@H](C)[C@@H]1NC(=O)[C@H](COC)N(C)C(=O)C[C@@H](C(=O)N2CCOCC2)N(C)C(=O)[C@H](C2CCCC2)N(C)C(=O)C2(CCCC2)NC(=O)[C@@H]2CC(F)(F)CN2C(=O)[C@H](CCc2cc(F)c(C(F)(F)F)c(F)c2)NC(=O)CN(C)C(=O)[C@H](Cc2ccc(C(F)(F)F)cc2)N2CCCCC[C@@H](C2=O)N(C)C(=O)CN(C)C1=O [PP0846] |  |  |  | 0.99 | B (a compound having 3 or more and less than 10 is denoted as B) | B (a compound having 3 or more and less than 10 is denoted as B) |  | 
3 | CCCN1C(=O)CN(C)C(=O)[C@@H]2CCN2C(=O)[C@H]([C@@H](C)CC)NC(=O)[C@H](CC(C)C)N(C)C(=O)C[C@@H](C(=O)N2CCOCC2)N(C)C(=O)[C@H](C2CCCC2)N(C)C(=O)C2(CCCC2)NC(=O)[C@@H]2C[C@@H](OCC)CN2C(=O)[C@H](CCc2ccc(C(F)(F)F)c(Cl)c2)NC(=O)CN(C)C(=O)[C@@H]1Cc1ccc(C(F)(F)F)cc1 [PP0310] ([NMeL]I[Aze][Sar][NPrPhe(4-CF3)][Sar][hPhe(3-Cl-4-CF3)][Hyp](Et)[Ac5c][NMeGly(cPent)][NMeD]-Morpholide; lactam N-11) | 0.45 |  |  |  | B (a compound having 3 or more and less than 10 is denoted as B) | C (A compound having a KD ratio of 0.1 or more and less than 3 is denoted as C) |  | 
4 | CCO[C@@H]1C[C@H]2C(=O)NC3(CC(C)(C)C3)C(=O)N(C)[C@@H](CC3CCC3)C(=O)N(C)[C@H](C(=O)N(C)C)CC(=O)N(C)[C@@H](COC)C(=O)N[C@@H]([C@@H](C)CC)C(=O)N(C3CC3)CC(=O)N(C)[C@H]3C/C=C\CCN(C3=O)[C@@H](Cc3ccc(C(F)(F)F)cc3)C(=O)N(C)CC(=O)N[C@@H](CCc3cc(F)c(C(F)(F)F)c(F)c3)C(=O)N2C1 [PP2769] | 2.5 |  |  |  |  |  | AA (a compound having 20 or more is denoted as AA) | A (a compound having 10 or more and less than 20 is denoted as A)
5 | CC[C@H](C)[C@@H]1NC(=O)[C@@H]2CCCCCCc3ccc(cc3)C[C@@H](C(=O)N(C)CC(=O)N[C@@H](CCc3ccc(C(F)(F)F)c(OC)c3)C(=O)N3C[C@H](OC(C)C)C[C@H]3C(=O)NC3(CC(C)(C)C3)C(=O)N(C)[C@@H](C3CCCC3)C(=O)N(C)[C@H](C(=O)N(C)C)CC(=O)N2C)N2CC/C=C\C[C@@H](C2=O)N(C)C(=O)CN(C)C1=O [PP3067] |  |  |  | 0.053 | A (a compound having 10 or more and less than 20 is denoted as A) | B (a compound having 3 or more and less than 10 is denoted as B) |  | 
6 | CCO[C@@H]1C[C@H]2C(=O)NC3(CCC3)C(=O)N(C)[C@@H](C3CCCC3)C(=O)N(C)[C@H](C(=O)N3CCOCC3)CC(=O)N(C)[C@@H](CC3CCCCC3)C(=O)N[C@@H]([C@@H](C)CC)C(=O)N(C)CC(=O)N(C)[C@H]3CCCCN(C3=O)[C@@H](Cc3ccc(C(F)(F)F)cc3)C(=O)N(C)CC(=O)N[C@@H](CCc3cc(F)c(C(F)(F)F)c(F)c3)C(=O)N2C1 [PP0716] | 0.055 | C (A compound having a KD ratio of 0.1 or more and less than 3 is denoted as C) | B (a compound having 3 or more and less than 10 is denoted as B) |  |  |  |  | 
7 | CCC[C@H]1C(=O)N[C@@H](C2CCCCC2)C(=O)N(C)CC(=O)N(C)[C@H]2C/C=C\CCN(C2=O)[C@@H](Cc2ccc(C(F)(F)F)cc2)C(=O)N(C)CC(=O)N[C@@H](CCc2ccc(C(F)(F)F)c(Cl)c2)C(=O)N2C[C@H](OCC)C[C@H]2C(=O)NC2(CC(C)(C)C2)C(=O)N(C)[C@@H](CC(C)C)C(=O)N(C)[C@H](C(=O)N(C)C)CC(=O)N1C [PP3017] |  |  |  | 1.5 | AA (a compound having 20 or more is denoted as AA) | A (a compound having 10 or more and less than 20 is denoted as A) |  | 
8 | CC[C@H](C)[C@@H]1NC(=O)[C@H](CC(C)C)N(C)C(=O)C[C@@H](C(=O)N2CCOCC2)N(C)C(=O)[C@H](C2CCCC2)N(C)C(=O)C2(CCCC2)NC(=O)[C@@H]2CCCN2C(=O)[C@H](CCc2ccc(C(F)(F)F)c(Cl)c2)NC(=O)CN(C)C(=O)[C@H](Cc2ccc(C)cc2)N(CC(C)C)C(=O)[C@@H]2CCN2C(=O)[C@H](C)N(C)C1=O [PP0056] ([NMeL]I[NMeA][Aze][X18][Sar][hPhe(3-Cl-4-CF3)]P[Ac5c][NMeGly(cPent)][NMeD]-Morpholide; lactam N-11) | 2.9 |  |  |  | C (A compound having a KD ratio of 0.1 or more and less than 3 is denoted as C) | B (a compound having 3 or more and less than 10 is denoted as B) |  | 
9 | CCCN1C(=O)CN(C)C(=O)CNC(=O)[C@H]([C@@H](C)CC)NC(=O)[C@H](CC(C)C)N(C)C(=O)C[C@@H](C(=O)N(C)C)NC(=O)[C@H](C2CCCC2)N(C)C(=O)C2(CCC2)NC(=O)[C@@H]2CC(F)(F)CN2C(=O)[C@H](CCc2ccc(C(F)(F)F)c(Cl)c2)NC(=O)CN(C)C(=O)[C@@H]1Cc1ccc(C(F)(F)F)cc1 [PP0364] ([NMeL]IG[Sar][NPrPhe(4-CF3)][Sar][hPhe(3-Cl-4-CF3)][Pro(4,4-F2)][Ac4c][NMeGly(cPent)]D-NMe2; lactam N-11) | 0.77 |  |  |  | B (a compound having 3 or more and less than 10 is denoted as B) | B (a compound having 3 or more and less than 10 is denoted as B) |  | 
10 | CCC[C@H]1C(=O)N[C@@H](C2CCCC2)C(=O)N(C)CC(=O)N(C)[C@H]2C/C=C\CCN(C2=O)[C@@H](Cc2ccc(C)cc2)C(=O)N(C)CC(=O)N[C@@H](CCc2ccc(C(F)(F)F)c(OC)c2)C(=O)N2C[C@H](OCC)C[C@H]2C(=O)NC2(CC(C)(C)C2)C(=O)N(C)[C@@H](C2CCCC2)C(=O)N(C)[C@H](C(=O)N(C)C)CC(=O)N1C [PP2992] |  |  |  | 0.19 | AA (a compound having 20 or more is denoted as AA) | A (a compound having 10 or more and less than 20 is denoted as A) |  | 
11 | CCO[C@@H]1C[C@H]2C(=O)NC3(CCC3)C(=O)N(C)[C@@H](C3CCCC3)C(=O)N(C)[C@H](C(=O)N3CCOCC3)CC(=O)N(C)[C@@H](C)C(=O)N[C@@H]([C@@H](C)CC)C(=O)N(C)CC(=O)N(C)[C@H]3CCCCN(C3=O)[C@@H](Cc3ccc(C(F)(F)F)cc3)C(=O)N(C)CC(=O)N[C@@H](CCc3cc(F)c(C(F)(F)F)c(F)c3)C(=O)N2C1 [PP0585] | 0.022 | B (a compound having 3 or more and less than 10 is denoted as B) | B (a compound having 3 or more and less than 10 is denoted as B) |  |  |  |  | 
12 | CCC[C@H]1C(=O)N[C@@H]([C@@H](C)CC)C(=O)N(C)CC(=O)N(C)[C@H]2C/C=C\CCN(C2=O)[C@@H](Cc2ccc(C)cc2)C(=O)N(C)CC(=O)N[C@@H](CCc2cc(F)c(C(F)F)c(F)c2)C(=O)N2C[C@H](OCC)C[C@H]2C(=O)NC2(CC(C)(C)C2)C(=O)N(C)[C@@H](C2CCCC2)C(=O)N(C)[C@H](C(=O)N(C)C)CC(=O)N1C [PP2782] | 0.49 |  |  |  |  |  | A (a compound having 10 or more and less than 20 is denoted as A) | A (a compound having 10 or more and less than 20 is denoted as A)
13 | CCO[C@@H]1C[C@H]2C(=O)NC3(CC(C)(C)C3)C(=O)N(C)[C@@H](C(CC)CC)C(=O)N(C)[C@H](C(=O)N(C)C)CC(=O)N(C)[C@H]3CCCCC/C=C/c4ccc(cc4)C[C@@H](C(=O)N(C)CC(=O)N[C@@H](CCc4ccc(Cl)c(Cl)c4)C(=O)N2C1)N1CC/C=C\C[C@@H](C1=O)N(C)C(=O)CN(C)C(=O)[C@H]([C@@H](C)CC)NC3=O [PP3050] |  |  |  | 0.29 | AA (a compound having 20 or more is denoted as AA) | A (a compound having 10 or more and less than 20 is denoted as A) |  | 
14 | C=CC[C@H]1C(=O)N[C@@H]([C@@H](C)CC)C(=O)N(C)CC(=O)N(C)[C@H]2CCCCN(C2=O)[C@@H](Cc2ccc(C(F)(F)F)cc2)C(=O)N(C)CC(=O)N[C@@H](CCc2cc(F)c(C(F)(F)F)c(F)c2)C(=O)N2C[C@H](OCC)C[C@H]2C(=O)NC2(CCC2)C(=O)N(C)[C@@H](C2CCCC2)C(=O)N(C)[C@H](C(=O)N2CCOCC2)CC(=O)N1C [PP0710] | 0.029 | C (A compound having a KD ratio of 0.1 or more and less than 3 is denoted as C) | B (a compound having 3 or more and less than 10 is denoted as B) |  |  |  |  | 
